Legend:
[1] = test system: A549 cancer cell line; assay: In vitro cytotoxicity, Alamar blue cell viability, A549; type: cell-based; conditions: 24 hr
[2] = test system: SARS-COV-2; conditions: Example 2; intranasal 0.35 mg/kg twice daily, 3-day treatment; FIG. 3
Text: Golden Syrian hamsters (aged 5-6 weeks old and having an average weight of about 100 g) were obtained from the National Laboratory Animal Center (Taipei, Taiwan). The hamsters were housed in an animal room under specific-pathogen-free (SPF) conditions commonly applied in the art. Furthermore, water and feed were provided ad libitum for all the hamsters. All the experiments involving the hamsters were consigned to and reviewed and approved by the Institutional Animal Care and Use Committee (IACUC) of Academia Sinica (Taiwan).
The hamsters were infected with SARS-COV-2 (obtained from P3 Lab, the Genomics Research Center, Academia Sinica; WuHan wild type) in phosphate buffered saline (PBS) through intranasal inoculation at 1×10^4 plaque-forming units (PFU) on 12:00 PM so as to establish a SARS-CoV-2 animal model. […]
After the 3-day treatment, the hamsters were sacrificed, and the lungs thereof were collected for live viral load measurement by TCID50 assay in Vero E6 cells. The virus titer was determined in terms of the 50% tissue culture infectious dose (TCID50) using the Reed-Muench method. […]

[3] = test system: MDA-MB-231 cancer cell line; assay: In vitro cytotoxicity, Alamar blue cell viability, MDA-MB-231; type: cell-based; conditions: 24 hr
[4] = target: SARS-COV-2 PLpro (Severe acute respiratory syndrome coronavirus 2, UniProt P0DTD1); type: biochemical; conditions: Example 1; 50 μM; FIG. 2 and Table 2
Experimental: The enzymatic activity of SARS-COV-2 PLpro obtained above was measured by a colorimetry-based peptide cleavage assay, using the 6-mer peptide substrate, FRLKGG-para-nitroanilide (FG6-pNA) (purity 97% by HPLC; GL Biochem Ltd., Shanghai, China). In the cleavage assay, the 6-mer peptide substrate was cleaved at the Gly-pNA bond to release free pNA, which turned the color of the solution to yellow. The enzymatic activity was determined by continuously monitoring the absorbance at 405 nm (A405) using a 96-well microplate spectrophotometer (Epoch™ 2, Biotek) at 30° C.
An enzyme inhibition assay was performed in a 96-well microplate. Each of the wells of the microplate contained a 50 mM phosphate buffer (pH 7.4). SARS-COV-2 PLPro obtained above (0.9 μM) was added into the respective well to form an enzyme solution. […]
20 μL of FG6-pNA (1.2 mM) described above was added into the test mixture of the respective group to initiate the enzyme reaction. […] The enzymatic activity was determined by continuously monitoring the absorbance at 405 nm (A405) using a 96-well microplate spectrophotometer (Epoch™ 2, Biotek). The reaction rate was calculated accordingly, wherein the reaction rate is the slope of the absorbance A405 versus time (seconds) for a total reaction time of 300 seconds.
The inhibition percentage was calculated using the following equation: […]

[5] = test system: Huh-7 cancer cell line; assay: In vitro cytotoxicity, Alamar blue cell viability, Huh-7; type: cell-based; conditions: 24 hr
[6] = test system: SKOV-3 cancer cell line; assay: In vitro cytotoxicity, Alamar blue cell viability, SK-OV-3; type: cell-based; conditions: 24 hr
[7] = test system: H460 cancer cell line; assay: In vitro cytotoxicity, Alamar blue cell viability, NCI-H460; type: cell-based; conditions: 24 hr
[8] = test system: AsPC-1 cancer cell line; assay: In vitro cytotoxicity, Alamar blue cell viability, AsPC-1; type: cell-based; conditions: 24 hr
[9] = test system: HCT-116 cancer cell line; assay: In vitro cytotoxicity, Alamar blue cell viability, HCT-116; type: cell-based; conditions: 24 hr

CC1=C(/C=C/C(C)=C/C=C/C(C)=C\C(=O)NCCCO[C@@H]2O[C@H](CO)[C@H](O)[C@H](O)[C@H]2O)C(C)(C)CCC1 [Galactose-modified isotretinoin, (2Z,4E,6E,8E)-3,7-Dimethyl-N-(3-(((2R,3R,4S,5R,6R)-3,4,5-Trihydroxy-6-(Hydroxymethyl)Tetrahydro-2H-Pyran-2-Yl)Oxy) Propyl)-9-(2,6,6-Trimethylcyclohex-1-En-1-Yl) Nona-2,4,6,8-Tetraenamide]
cell viability ([1]; A549, FIG. 9): significantly reduce
IC50 ([1]; Homo sapiens, A549, Non-small Cell Lung Cancer): 21.9 µM
TCID50 (lung virus titer) compared with isotretinoin and liposome-encapsulated isotretinoin [2]: significantly lower
IC50 ([3]; Homo sapiens, MDA-MB-231, Breast Cancer): 116 µM
cell viability ([3]; MDA-MB-231, FIG. 5): significantly reduce
inhibition rate compared with Comparative_1 (isotretinoin only) [4]: significantly higher
IC50 ([5]; Homo sapiens, Huh-7, Liver Cancer): 77.5 µM
cell viability ([5]; Huh-7, FIG. 7): significantly reduce
IC50 ([6]; Homo sapiens, SK-OV-3, Ovarian Cancer): 13.8 µM
cell viability ([6]; SKOV-3, FIG. 8): significantly reduce
cell viability ([7]; H460, FIG. 10): significantly reduce
IC50 ([7]; Homo sapiens, NCI-H460, Non-small Cell Lung Cancer): 22.9 µM
cell viability ([8]; AsPC-1, FIG. 4): significantly reduce
IC50 ([8]; Homo sapiens, ASPC1, AsPC-1, Pancreatic Cancer): 23 µM
cell viability ([9]; HCT-116, FIG. 6): significantly reduce
IC50 ([9]; Homo sapiens, HCT-116, Colon Cancer): 123 µM
